Laboratory results from the supplement of paper PMC6411743.

Compound: Nc1ncnc2c1ncn2[C@@H]1O[C@H](COP(=O)(O)OP(=O)(O)OP(=O)(O)O)[C@@H](O)[C@H]1O [adenosine triphosphate]
Test: pEC50 of ATP-induced change in protein thermal stability (2D-TPP)
How it was run: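 Crude Jurkat lysate was exposed to five concentrations, vehicle among them, for 10 min at room temperature, then heated for 3 min at 12 temperatures between 42 and 63.9 °C and treated with NP40 and benzonase for 60 min at 4 °C. Soluble protein remaining after ultracentrifugation was measured by TMT LC-MS/MS, and fold changes relative to vehicle at each temperature were median-normalised. pEC50 values come from dose-response fits made per replicate across adjacent temperature pairs, with hits called under permutation-based false discovery rate control. Three independent experiments were run.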
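Further: lysate dosed with Na-ATP at 0 0.005 0.05 0.5 and 2 mM.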

Chain of UniProt P13807 (P13807 whole entry): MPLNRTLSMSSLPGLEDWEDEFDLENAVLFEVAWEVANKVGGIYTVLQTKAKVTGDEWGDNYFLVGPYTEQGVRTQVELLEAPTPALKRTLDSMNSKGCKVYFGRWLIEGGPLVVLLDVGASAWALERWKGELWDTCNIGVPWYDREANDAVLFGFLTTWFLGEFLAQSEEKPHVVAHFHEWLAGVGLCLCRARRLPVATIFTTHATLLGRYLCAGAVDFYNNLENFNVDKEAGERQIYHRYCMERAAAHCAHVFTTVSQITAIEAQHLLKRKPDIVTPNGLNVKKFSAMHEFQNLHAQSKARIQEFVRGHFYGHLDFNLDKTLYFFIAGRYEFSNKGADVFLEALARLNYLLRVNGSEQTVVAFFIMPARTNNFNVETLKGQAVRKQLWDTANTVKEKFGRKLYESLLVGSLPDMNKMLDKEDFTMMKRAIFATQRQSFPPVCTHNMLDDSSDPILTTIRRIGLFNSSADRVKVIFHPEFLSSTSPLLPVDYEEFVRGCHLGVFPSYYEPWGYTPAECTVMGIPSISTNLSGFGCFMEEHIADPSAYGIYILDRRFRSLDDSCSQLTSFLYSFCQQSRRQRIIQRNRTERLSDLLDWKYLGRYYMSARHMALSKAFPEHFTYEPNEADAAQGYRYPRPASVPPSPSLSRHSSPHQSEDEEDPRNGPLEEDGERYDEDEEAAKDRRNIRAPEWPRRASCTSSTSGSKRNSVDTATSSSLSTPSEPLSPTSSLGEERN
Chain of UniProt Q8NDX6 (Q8NDX6 whole entry): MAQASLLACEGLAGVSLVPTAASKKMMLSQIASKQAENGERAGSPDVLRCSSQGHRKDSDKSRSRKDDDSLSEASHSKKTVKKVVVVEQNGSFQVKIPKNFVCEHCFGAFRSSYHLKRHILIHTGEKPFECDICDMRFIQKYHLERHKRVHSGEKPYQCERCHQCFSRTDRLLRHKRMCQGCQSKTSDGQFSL
Chain of UniProt O00232 (O00232 whole entry): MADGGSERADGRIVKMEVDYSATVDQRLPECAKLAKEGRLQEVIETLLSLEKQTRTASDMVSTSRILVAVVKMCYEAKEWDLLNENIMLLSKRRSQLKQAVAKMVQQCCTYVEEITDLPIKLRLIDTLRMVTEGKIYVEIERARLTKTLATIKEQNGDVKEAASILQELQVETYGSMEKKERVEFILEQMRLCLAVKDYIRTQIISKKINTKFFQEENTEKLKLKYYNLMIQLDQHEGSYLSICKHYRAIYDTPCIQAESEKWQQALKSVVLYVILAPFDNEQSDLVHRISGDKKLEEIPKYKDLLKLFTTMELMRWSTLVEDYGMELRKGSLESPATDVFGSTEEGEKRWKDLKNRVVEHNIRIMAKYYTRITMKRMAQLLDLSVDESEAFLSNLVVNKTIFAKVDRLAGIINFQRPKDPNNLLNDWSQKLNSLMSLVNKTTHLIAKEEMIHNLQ
Chain of UniProt P04350 (P04350 whole entry): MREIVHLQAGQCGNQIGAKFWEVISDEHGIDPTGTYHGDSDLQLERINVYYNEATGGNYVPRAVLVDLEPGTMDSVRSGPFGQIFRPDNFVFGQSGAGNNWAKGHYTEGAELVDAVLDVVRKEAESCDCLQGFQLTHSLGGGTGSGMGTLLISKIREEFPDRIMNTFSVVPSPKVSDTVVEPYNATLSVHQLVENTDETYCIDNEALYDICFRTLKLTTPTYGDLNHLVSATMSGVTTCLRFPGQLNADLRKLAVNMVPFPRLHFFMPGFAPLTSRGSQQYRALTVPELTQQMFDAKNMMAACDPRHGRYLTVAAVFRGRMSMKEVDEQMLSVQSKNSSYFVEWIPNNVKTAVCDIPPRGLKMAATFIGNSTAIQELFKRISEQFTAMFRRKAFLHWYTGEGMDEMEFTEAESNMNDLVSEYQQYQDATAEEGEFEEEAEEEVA
Chain of UniProt Q9BSJ8 (Q9BSJ8 whole entry): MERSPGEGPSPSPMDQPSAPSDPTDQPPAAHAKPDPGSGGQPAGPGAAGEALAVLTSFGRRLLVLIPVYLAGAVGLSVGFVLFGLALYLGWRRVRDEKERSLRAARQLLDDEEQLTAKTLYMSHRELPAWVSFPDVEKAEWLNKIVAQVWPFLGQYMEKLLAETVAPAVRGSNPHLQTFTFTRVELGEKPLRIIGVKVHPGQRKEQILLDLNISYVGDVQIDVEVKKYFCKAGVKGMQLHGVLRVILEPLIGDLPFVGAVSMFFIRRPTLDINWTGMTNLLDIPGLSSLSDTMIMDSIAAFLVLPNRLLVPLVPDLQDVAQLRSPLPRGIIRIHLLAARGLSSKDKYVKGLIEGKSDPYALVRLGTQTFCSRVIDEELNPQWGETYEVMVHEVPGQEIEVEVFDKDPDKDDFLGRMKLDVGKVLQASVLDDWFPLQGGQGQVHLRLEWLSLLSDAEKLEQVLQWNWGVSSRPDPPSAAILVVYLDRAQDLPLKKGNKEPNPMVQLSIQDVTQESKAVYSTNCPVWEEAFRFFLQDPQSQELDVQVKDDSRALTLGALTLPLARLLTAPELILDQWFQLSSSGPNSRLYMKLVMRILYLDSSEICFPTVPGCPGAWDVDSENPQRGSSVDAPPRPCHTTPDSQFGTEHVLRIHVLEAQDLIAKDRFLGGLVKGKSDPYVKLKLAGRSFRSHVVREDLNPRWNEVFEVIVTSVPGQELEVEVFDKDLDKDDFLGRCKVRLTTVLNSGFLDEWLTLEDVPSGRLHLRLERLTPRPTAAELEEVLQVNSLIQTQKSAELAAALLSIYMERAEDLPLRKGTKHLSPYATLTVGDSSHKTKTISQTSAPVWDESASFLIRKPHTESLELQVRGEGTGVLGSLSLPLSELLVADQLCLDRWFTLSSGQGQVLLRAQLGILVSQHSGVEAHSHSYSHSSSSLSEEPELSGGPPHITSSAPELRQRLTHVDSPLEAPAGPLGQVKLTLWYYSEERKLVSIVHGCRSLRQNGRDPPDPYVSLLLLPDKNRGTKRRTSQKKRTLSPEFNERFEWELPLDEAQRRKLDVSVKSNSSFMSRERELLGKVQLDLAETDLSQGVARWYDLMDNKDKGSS
Chain of UniProt Q15418 (Q15418 whole entry): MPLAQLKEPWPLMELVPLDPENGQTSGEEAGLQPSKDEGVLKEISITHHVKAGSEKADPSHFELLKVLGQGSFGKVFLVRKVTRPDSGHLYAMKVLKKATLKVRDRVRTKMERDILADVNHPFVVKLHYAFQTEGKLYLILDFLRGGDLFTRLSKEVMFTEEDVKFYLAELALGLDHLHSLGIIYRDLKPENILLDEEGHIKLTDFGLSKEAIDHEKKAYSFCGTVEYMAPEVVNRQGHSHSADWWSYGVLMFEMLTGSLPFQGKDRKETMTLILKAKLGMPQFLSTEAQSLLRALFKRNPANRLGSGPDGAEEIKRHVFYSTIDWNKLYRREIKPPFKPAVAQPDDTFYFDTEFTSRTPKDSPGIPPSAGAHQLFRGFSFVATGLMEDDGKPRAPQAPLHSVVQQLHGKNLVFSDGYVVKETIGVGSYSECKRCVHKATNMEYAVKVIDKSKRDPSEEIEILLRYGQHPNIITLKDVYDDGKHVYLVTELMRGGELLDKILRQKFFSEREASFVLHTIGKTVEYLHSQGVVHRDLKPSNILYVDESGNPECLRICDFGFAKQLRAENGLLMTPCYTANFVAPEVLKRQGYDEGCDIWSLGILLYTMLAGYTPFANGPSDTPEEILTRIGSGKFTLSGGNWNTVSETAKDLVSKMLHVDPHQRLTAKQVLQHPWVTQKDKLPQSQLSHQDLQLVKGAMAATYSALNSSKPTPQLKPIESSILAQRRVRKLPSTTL
Chain of UniProt Q8N163 (Q8N163 whole entry): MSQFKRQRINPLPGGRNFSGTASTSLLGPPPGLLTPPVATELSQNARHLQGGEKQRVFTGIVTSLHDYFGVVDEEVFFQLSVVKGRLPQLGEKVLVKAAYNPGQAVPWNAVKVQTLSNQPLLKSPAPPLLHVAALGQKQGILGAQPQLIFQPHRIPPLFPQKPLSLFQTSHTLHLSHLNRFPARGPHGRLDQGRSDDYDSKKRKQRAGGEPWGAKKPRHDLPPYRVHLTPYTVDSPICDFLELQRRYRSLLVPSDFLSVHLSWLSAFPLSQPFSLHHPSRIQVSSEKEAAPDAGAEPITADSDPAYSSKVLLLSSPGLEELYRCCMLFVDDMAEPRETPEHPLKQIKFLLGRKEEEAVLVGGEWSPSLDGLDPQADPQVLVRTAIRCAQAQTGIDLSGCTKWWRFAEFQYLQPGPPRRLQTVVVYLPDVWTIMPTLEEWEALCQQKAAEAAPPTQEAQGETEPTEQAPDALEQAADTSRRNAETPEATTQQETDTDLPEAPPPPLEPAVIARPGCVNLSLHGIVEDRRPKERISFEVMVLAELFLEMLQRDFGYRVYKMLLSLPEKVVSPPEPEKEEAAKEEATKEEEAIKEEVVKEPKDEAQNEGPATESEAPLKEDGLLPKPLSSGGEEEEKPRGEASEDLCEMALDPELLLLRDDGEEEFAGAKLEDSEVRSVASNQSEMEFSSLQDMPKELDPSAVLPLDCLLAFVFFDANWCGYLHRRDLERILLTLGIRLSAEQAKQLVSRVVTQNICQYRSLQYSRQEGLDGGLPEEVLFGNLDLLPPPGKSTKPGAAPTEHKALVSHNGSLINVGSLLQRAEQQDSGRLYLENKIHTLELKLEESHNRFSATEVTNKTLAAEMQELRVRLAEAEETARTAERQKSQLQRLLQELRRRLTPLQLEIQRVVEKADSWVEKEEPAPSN
Chain of UniProt P39687 (P39687 whole entry): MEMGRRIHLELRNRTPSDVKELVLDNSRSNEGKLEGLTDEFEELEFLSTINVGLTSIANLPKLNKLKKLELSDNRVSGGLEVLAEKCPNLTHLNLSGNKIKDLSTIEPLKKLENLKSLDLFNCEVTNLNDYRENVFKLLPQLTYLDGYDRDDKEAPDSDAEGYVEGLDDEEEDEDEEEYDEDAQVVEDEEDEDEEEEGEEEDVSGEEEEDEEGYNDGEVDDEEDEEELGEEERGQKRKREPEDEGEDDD
Chain of UniProt P05161 (P05161 whole entry): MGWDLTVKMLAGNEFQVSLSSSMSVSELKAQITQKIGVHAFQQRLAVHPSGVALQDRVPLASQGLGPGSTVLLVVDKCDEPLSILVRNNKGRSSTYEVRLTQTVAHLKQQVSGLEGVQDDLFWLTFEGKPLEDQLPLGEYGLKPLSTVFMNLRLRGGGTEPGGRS

| Target | pEC50 |
| --- | --- |
| PES1 (effect direction: destabilized) (UniProt O00541) | 3.49 |
| UniProt Q8NBU5 (effect direction: stabilized) | 3.06 |
| CENPE (effect direction: stabilized) (UniProt Q02224) | 4.04 |
| ANP32A (effect direction: stabilized) (UniProt P39687) | < 2.7 |
| DUS3L (effect direction: stabilized) (UniProt Q96G46) | 2.91 |
| TBP (effect direction: destabilized) (UniProt P20226) | 3.12 |
| UniProt P62826 (effect direction: destabilized) | 3.01 |
| CAND1 (effect direction: stabilized) (UniProt Q86VP6) | 2.95 |
| SNX5 (effect direction: stabilized) (UniProt Q9Y5X3) | < 2.7 |
| UniProt O95319 (effect direction: stabilized) | < 2.7 |
| EFHD2 (effect direction: destabilized) (UniProt Q96C19) | 3.08 |
| UniProt Q9BSJ8 (effect direction: stabilized) | 3.08 |
| PSMC3 (effect direction: stabilized) (UniProt P17980) | 4.02 |
| NUBP1 (effect direction: stabilized) (UniProt P53384) | 3.44 |
| GSS (effect direction: stabilized) (UniProt P48637) | 3.56 |
| RPL27A (effect direction: destabilized) (UniProt P46776) | 3.2 |
| PHKA1 (effect direction: stabilized) (UniProt P46020) | 2.87 |
| PATL1 (effect direction: stabilized) (UniProt Q86TB9) | 2.83 |
| PPP2CA (effect direction: destabilized) (UniProt P67775) | < 2.7 |
| LLPH (effect direction: stabilized) (UniProt Q9BRT6) | < 2.7 |
| UniProt P62316 (effect direction: destabilized) | < 2.7 |
| UniProt P35626 (effect direction: stabilized) | 3.31 |
| NUMB (effect direction: stabilized) (UniProt P49757) | 3.45 |
| CRLF3 (effect direction: stabilized) (UniProt Q8IUI8) | < 2.7 |
| HSP90AA1 (effect direction: stabilized) (UniProt P07900) | > 5.3 |
| PSMD13 (effect direction: stabilized) (UniProt Q9UNM6) | 4.14 |
| MAPRE1 (effect direction: stabilized) (UniProt Q15691) | < 2.7 |
| FOXK2 (effect direction: stabilized) (UniProt Q01167) | 3.76 |

| Target | pEC50 |
| --- | --- |
| UniProt Q5VZE5 (effect direction: stabilized) | 2.92 |
| SH2D1A (effect direction: stabilized) (UniProt O60880) | < 2.7 |
| CBWD1 (effect direction: stabilized) (UniProt Q9BRT8) | 2.96 |
| CCDC12 (effect direction: destabilized) (UniProt Q8WUD4) | 3.49 |
| ATIC (effect direction: stabilized) (UniProt P31939) | < 2.7 |
| RDH14 (effect direction: stabilized) (UniProt Q9HBH5) | 3.2 |
| ORC6 (effect direction: stabilized) (UniProt Q9Y5N6) | 3.73 |
| GYS1 (effect direction: destabilized) (UniProt P13807) | 5.03 |
| CAPN1 (effect direction: stabilized) (UniProt P07384) | 3.17 |
| ITPK1 (effect direction: stabilized) (UniProt Q13572) | 3.89 |
| USP47 (effect direction: stabilized) (UniProt Q96K76) | < 2.7 |
| UniProt P61353 (effect direction: destabilized) | > 5.3 |
| CDC40 (effect direction: destabilized) (UniProt O60508) | 3.22 |
| UniProt O95071 (effect direction: stabilized) | 3.27 |
| HMGN4 (effect direction: stabilized) (UniProt O00479) | 3.52 |
| ARPC3 (effect direction: stabilized) (UniProt O15145) | 2.88 |
| SPG7 (effect direction: stabilized) (UniProt Q9UQ90) | 4.48 |
| RPL13 (effect direction: destabilized) (UniProt P26373) | > 5.3 |
| AARS (effect direction: stabilized) (UniProt P49588) | 4.2 |
| TSR1 (effect direction: destabilized) (UniProt Q2NL82) | 3.51 |
| SSB (effect direction: stabilized) (UniProt P05455) | < 2.7 |
| NEDD8 (effect direction: destabilized) (UniProt Q15843) | 3.02 |
| UniProt Q9NQG6 (effect direction: stabilized) | 3.74 |
| PRDX6 (effect direction: stabilized) (UniProt P30041) | < 2.7 |
| ATP1A1 (effect direction: stabilized) (UniProt P05023) | 3.18 |
| HEXB (effect direction: stabilized) (UniProt P07686) | 3.01 |
| PTAR1 (effect direction: stabilized) (UniProt Q7Z6K3) | < 2.7 |

Second part, the target after the results:

| pEC50 | Target |
| --- | --- |
| 4.56 | NAPA (effect direction: destabilized) (UniProt P54920) |
| 3.13 | PURA (effect direction: stabilized) (UniProt Q00577) |
| 3.27 | RPL17 (effect direction: destabilized) (UniProt P18621) |
| 3.13 | ILF3 (effect direction: stabilized) (UniProt Q12906) |
| < 2.7 | UniProt P42285 (effect direction: stabilized) |
| < 2.7 | UMPS (effect direction: stabilized) (UniProt P11172) |
| 3.54 | UniProt Q14240 (effect direction: stabilized) |
| < 2.7 | TSEN34 (effect direction: stabilized) (UniProt Q9BSV6) |
| < 2.7 | POP1 (effect direction: destabilized) (UniProt Q99575) |
| 2.9 | UniProt Q8N163 (effect direction: stabilized) |
| 3.26 | FDXR (effect direction: stabilized) (UniProt P22570) |
| 3.08 | CTNNBL1 (effect direction: stabilized) (UniProt Q8WYA6) |
| 3.39 | DYNC1H1 (effect direction: stabilized) (UniProt Q14204) |
| < 2.7 | UBE3A (effect direction: stabilized) (UniProt Q05086) |
| 3.16 | ZNF740 (effect direction: stabilized) (UniProt Q8NDX6) |
| 3.82 | RPS2 (effect direction: destabilized) (UniProt P15880) |
| 3.33 | PRPS2 (effect direction: stabilized) (UniProt P11908) |
| 3.82 | EIF2B3 (effect direction: stabilized) (UniProt Q9NR50) |
| 3.3 | RAD54L2 (effect direction: stabilized) (UniProt Q9Y4B4) |

| pEC50 | Target |
| --- | --- |
| 2.74 | ISG15 (effect direction: stabilized) (UniProt P05161) |
| 4.05 | UniProt P62280 (effect direction: destabilized) |
| < 2.7 | MIER1 (effect direction: stabilized) (UniProt Q8N108) |
| < 2.7 | WDR33 (effect direction: stabilized) (UniProt Q9C0J8) |
| 3.07 | UniProt P04350 (effect direction: stabilized) |
| 3.64 | SRPK1 (effect direction: stabilized) (UniProt Q96SB4) |
| 3.86 | UBA3 (effect direction: stabilized) (UniProt Q8TBC4) |
| 3.59 | UniProt Q14004 (effect direction: stabilized) |
| 2.92 | PPP3CC (effect direction: destabilized) (UniProt P48454) |
| 4.17 | DHX57 (effect direction: stabilized) (UniProt Q6P158) |
| 4.39 | CCT7 (effect direction: stabilized) (UniProt Q99832) |
| 3.51 | PFN2 (effect direction: stabilized) (UniProt P35080) |
| 3.56 | UniProt Q9Y6E0 (effect direction: stabilized) |
| 4.29 | PSMD12 (effect direction: stabilized) (UniProt O00232) |
| 3.77 | UniProt Q15418 (effect direction: stabilized) |
| 2.79 | SF3A1 (effect direction: stabilized) (UniProt Q15459) |
| 3.66 | UniProt Q9BQ61 (effect direction: destabilized) |
| 2.91 | YRDC (effect direction: stabilized) (UniProt Q86U90) |
| 2.93 | HNRNPH1 (effect direction: stabilized) (UniProt P31943) |
